BigSolDB 2.1

O=Cc1ccc2ccccc2c1
solubility (mole fraction)
Details	283.15 K	288.15 K	293.15 K	298.15 K	303.15 K	308.15 K	313.15 K
in ethanol	0.0161	0.0245	0.0377	0.0653	0.11	0.191	0.314
in isopropanol	0.0115	0.0201	0.0404	0.0557	0.0908	0.144	0.237
in methanol	0.00592	0.00987	0.0163	0.0274	0.0418	0.0696	0.119
in n-butanol	0.0195	0.0281	0.0425	0.0561	0.0758	0.117	0.164
in n-heptane	0.00944	0.0128	0.0164	0.0192	0.0255	0.0345	0.0415
in n-hexane	0.00727	0.00923	0.0128	0.0159	0.0189	0.026	0.0314
